Laboratory results reported in patent US20100029619A1, “FUSED HETEROCYCLIC COMPOUND” (TAKEDA PHARMACEUTICAL COMPANY LIMTED, priority 2006, published 2010).

Row | melting point | SMILES
1 | 232 to 233 °C | CC(C)(C)c1ccc(C(=O)Nc2cn3nc(NCc4cccnc4)ccc3n2)cc1 [Example 160, 4-tert-butyl-N-{6-[(pyridin-3-ylmethyl)amino]imidazo[1,2-b]pyridazin-2-yl}benzamide]
2 | 196 to 197 °C | CC(C)(C)c1ccc(C(=O)Nc2cn3nc(NCc4ccccn4)ccc3n2)cc1 [Example 161, 4-tert-butyl-N-{6-[(pyridin-2-ylmethyl)amino]imidazo[1,2-b]pyridazin-2-yl}benzamide]
3 | 279 °C | CC(C)(C)c1ccc(C(=O)Nc2cn3nc(NCCc4ccncc4)ccc3n2)cc1 [Example 162, 4-tert-butyl-N-{6-[(2-pyridin-4-ylethyl)amino]imidazo[1,2-b]pyridazin-2-yl}benzamide]
4 | 231 °C | CC(C)(C)c1ccc(C(=O)Nc2cn3nc(NCCc4cccnc4)ccc3n2)cc1 [Example 163, 4-tert-butyl-N-{6-[(2-pyridin-3-ylethyl)amino]imidazo[1,2-b]pyridazin-2-yl}benzamide]
5 | 296 to 297 °C | CC(C)(C)c1ccc(C(=O)Nc2cn3nc(NC4CCCCC4)ccc3n2)cc1 [Example 164, 4-tert-butyl-N-[6-(cyclohexylamino)imidazo[1,2-b]pyridazin-2-yl]benzamide]
6 | 272 to 273 °C | CC(C)(C)c1ccc(C(=O)Nc2cn3nc(NC4CCCC4)ccc3n2)cc1 [Example 165, 4-tert-butyl-N-[6-(cyclopentylamino)imidazo[1,2-b]pyridazin-2-yl]benzamide]
7 | 274 to 275 °C | CC(C)(C)c1ccc(C(=O)Nc2cn3nc(NC4CC4)ccc3n2)cc1 [Example 166, 4-tert-butyl-N-[6-(cyclopropylamino)imidazo[1,2-b]pyridazin-2-yl]benzamide]
8 | 243 to 244 °C | CCCNc1ccc2nc(NC(=O)c3ccc(C(C)(C)C)cc3)cn2n1 [Example 167, 4-tert-butyl-N-[6-(propylamino)imidazo[1,2-b]pyridazin-2-yl]benzamide]
9 | 275 to 277 °C | CN1CCC(Nc2ccc3nc(NC(=O)c4ccc(C(C)(C)C)cc4)cn3n2)CC1 [Example 168, 4-tert-butyl-N-{6-[(1-methylpiperidin-4-yl)amino]imidazo[1,2-b]pyridazin-2-yl}benzamide]
10 | 231 to 233 °C | CC(C)(C)c1ccc(C(=O)Nc2cn3nc(NCCO)ccc3n2)cc1 [Example 169, 4-tert-butyl-N-{6-[(2-hydroxyethyl)amino]imidazo[1,2-b]pyridazin-2-yl}benzamide]
11 | 264 to 265 °C | CC(C)(C)c1ccc(C(=O)Nc2cn3nc(NC4CCNC4)ccc3n2)cc1 (centres unmarked) [Example 170, 4-tert-butyl-N-{6-[(pyrrolidin-3-yl)amino]imidazo[1,2-b]pyridazin-2-yl}benzamide]
12 | 242 to 243 °C | CC(C)(C)c1ccc(C(=O)Nc2cn3nc(NC4CCNCC4)ccc3n2)cc1 [Example 171, 4-tert-butyl-N-[6-(piperidin-4-ylamino)imidazo[1,2-b]pyridazin-2-yl]benzamide]
13 | 200 to 201 °C | CNCCNc1ccc2nc(NC(=O)c3ccc(C(C)(C)C)cc3)cn2n1 [Example 172, 4-tert-butyl-N-(6-{[2-(methylamino)ethyl]amino}imidazo[1,2-b]pyridazin-2-yl)benzamide]
14 | 245 to 246 °C | Cn1cc(-c2ccc3nc(NC(=O)c4ccc(C(C)(C)C)cc4)cn3n2)cn1 [Example 173, 4-tert-butyl-N-[6-(1-methyl-1H-pyrazol-4-yl)imidazo[1,2-b]pyridazin-2-yl]benzamide]
15 | 358 to 362 °C (dec.) | CC(C)(C)c1ccc(C(=O)Nc2cn3nc(-c4cn[nH]c4)ccc3n2)cc1 [Example 174, 4-tert-butyl-N-[6-(1H-pyrazol-4-yl)imidazo[1,2-b]pyridazin-2-yl]benzamide]
16 | 251 to 252 °C | Cn1cc(-c2ccc3nc(NC(=O)c4ccc(C(C)(C)C)nc4)cn3n2)cn1 [Example 176, 6-tert-butyl-N-[6-(1-methyl-1H-pyrazol-4-yl)imidazo[1,2-b]pyridazin-2-yl]nicotinamide]
17 | 226 to 229 °C | CC(C)(C)c1ccc(C(=O)Nc2cn3nc(-c4cnn(CCO)c4)ccc3n2)cc1 [Example 178, 4-tert-butyl-N-{6-[1-(2-hydroxyethyl)-1H-pyrazol-4-yl]imidazo[1,2-b]pyridazin-2-yl}benzamide]
18 | 282 to 283 °C | Cc1cccc2nc(NC(=O)c3ccc(C(C)(C)C(=O)O)cc3)cn12 [Example 186, 2-methyl-2-{4-[(5-methylimidazo[1,2-a]pyridin-2-yl)carbamoyl]phenyl}propanoic acid]
19 | 260 °C | Cc1cccc2nc(NC(=O)c3ccc(C(C)(C)CCC(=O)O)cc3)cn12 [Example 187, 4-methyl-4-(4-{[(5-methylimidazo[1,2-a]pyridin-2-yl)amino]carbonyl}phenyl)pentanoic acid]

Row | melting point | SMILES
20 | 272 °C | Cc1cccc2nc(NC(=O)c3ccc(C4(C(=O)O)CCC4)cc3)cn12 [Example 188, 1-{4-[(5-methylimidazo[1,2-a]pyridin-2-yl)carbamoyl]phenyl}cyclobutanecarboxylic acid]
21 | 330 to 331 °C | O=C(Nc1cn2cc(Cl)ccc2n1)c1ccc(C2(C(=O)O)CC2)cc1 [Example 189, 1-{4-[(6-chloroimidazo[1,2-a]pyridin-2-yl)carbamoyl]phenyl}cyclopropanecarboxylic acid]
22 | 317.7 °C (dec.) | O=C(Nc1cn2cc(Cl)ccc2n1)c1ccc(C2(C(=O)O)CCC2)cc1 [Example 190, 1-{4-[(6-chloroimidazo[1,2-a]pyridin-2-yl)carbamoyl]phenyl}cyclobutanecarboxylic acid]
23 | 313 °C (dec.) | O=C(Nc1cn2cc(Cl)ccc2n1)c1ccc(C2(C(=O)O)CCCC2)cc1 [Example 191, 1-{4-[(6-chloroimidazo[1,2-a]pyridin-2-yl)carbamoyl]phenyl}cyclopentanecarboxylic acid]
24 | 288 °C | O=C(Nc1cn2cc(Cl)ccc2n1)c1ccc(C2(C(=O)O)CCCCC2)cc1 [Example 192, 1-(4-{[(6-chloroimidazo[1,2-a]pyridin-2-yl)amino]carbonyl}phenyl)cyclohexanecarboxylic acid]
25 | 229 to 230 °C | CC(C)(C)c1ccc(C(=O)Nc2cn3c(CO)cccc3n2)cc1 [Example 194, 4-tert-butyl-N-[5-(hydroxymethyl)imidazo[1,2-a]pyridin-2-yl]benzamide]
26 | 283 to 284 °C | CC(C)(CCc1noc(=O)[nH]1)c1ccc(C(=O)Nc2cn3cc(-n4ccnc4)ccc3n2)cc1 [Example 437, 4-[1,1-dimethyl-3-(5-oxo-4,5-dihydro-1,2,4-oxadiazol-3-yl)propyl]-N-[6-(1H-imidazol-1-yl)imidazo[1,2-a]pyridin-2-yl]benzamide]
27 | 194 to 195 °C | Cc1ccc2nc(NC(=O)c3ccc(C(C)(C)CCC#N)cc3)cn2c1 [Example 438, 4-(3-cyano-1,1-dimethylpropyl)-N-(6-methylimidazo[1,2-a]pyridin-2-yl)benzamide]
28 | 245 to 246 °C | Cc1ccc2nc(NC(=O)c3ccc(C(C)(C)CCc4nnn[nH]4)cc3)cn2c1 [Example 439, 4-[1,1-dimethyl-3-(1H-tetrazol-5-yl)propyl]-N-(6-methylimidazo[1,2-a]pyridin-2-yl)benzamide]
29 | 267 to 268 °C | Cc1ccc2nc(NC(=O)c3ccc(C(C)(C)CCc4noc(=O)[nH]4)cc3)cn2c1 [Example 440, 4-[1,1-dimethyl-3-(5-oxo-4,5-dihydro-1,2,4-oxadiazol-3-yl)propyl]-N-(6-methylimidazo[1,2-a]pyridin-2-yl)benzamide]
30 | 227 to 228 °C | CC(C)(CCC#N)c1ccc(C(=O)Nc2cn3c4c(ccc3n2)OCC4)cc1 [Example 441, 4-(3-cyano-1,1-dimethylpropyl)-N-(1,2-dihydrofuro[2,3-e]imidazo[1,2-a]pyridin-7-yl)benzamide]
31 | 233 to 234 °C | CC(C)(CCC#N)c1ccc(C(=O)Nc2cn3cc(C(F)(F)F)ccc3n2)cc1 [Example 445, 4-(3-cyano-1,1-dimethylpropyl)-N-[6-(trifluoromethyl)imidazo[1,2-a]pyridin-2-yl]benzamide]
32 | 268 to 270 °C | CC(C)(CCc1noc(=O)[nH]1)c1ccc(C(=O)Nc2cn3cc(C(F)(F)F)ccc3n2)cc1 [Example 447, 4-[1,1-dimethyl-3-(5-oxo-4,5-dihydro-1,2,4-oxadiazol-3-yl)propyl]-N-[6-(trifluoromethyl)imidazo[1,2-a]pyridin-2-yl]benzamide]
33 | 228 to 229 °C | CC(C)(CNC(=O)C(O)CO)c1ccc(C(=O)Nc2cn3cc(Cl)ccc3n2)cc1 (centres unmarked) [Example 450, N-(6-chloroimidazo[1,2-a]pyridin-2-yl)-4-[2-(glyceroylamino)-1,1-dimethylethyl]benzamide]
34 | 270 °C (dec.) | CC(C)(CNC(=O)Cc1cnc[nH]1)c1ccc(C(=O)Nc2cn3cc(Cl)ccc3n2)cc1 [Example 451, N-(6-chloroimidazo[1,2-a]pyridin-2-yl)-4-{2-[(1H-imidazol-5-ylacetyl)amino]-1,1-dimethylethyl}benzamide]
35 | 234 to 235 °C | CC(C)(C)c1ccc(C(=O)Nc2cn3cc(C(F)(F)F)ccc3n2)cc1 [Example 452, 4-tert-butyl-N-[6-(trifluoromethyl)imidazo[1,2-a]pyridin-2-yl]benzamide]
36 | 198 to 199 °C | CC(C)(C(=O)NCC(O)CO)c1ccc(C(=O)Nc2cn3cc(Cl)ccc3n2)cc1 (centres unmarked) [Example 454, N-(6-chloroimidazo[1,2-a]pyridin-2-yl)-4-{2-[(2,3-dihydroxypropyl)amino]-1,1-dimethyl-2-oxoethyl}benzamide]
37 | 230 to 231 °C | CC(C)(C#N)c1ccc(C(=O)Nc2cn3cc(C(F)(F)F)ccc3n2)cc1 [Example 455, 4-(1-cyano-1-methylethyl)-N-[6-(trifluoromethyl)imidazo[1,2-a]pyridin-2-yl]benzamide]
38 | 174 to 176 °C | CC(C)(CNC(=O)c1c[nH]cn1)c1ccc(C(=O)Nc2cn3cc(C(F)(F)F)ccc3n2)cc1 [Example 456, N-[2-methyl-2-(4-{[6-(trifluoromethyl)imidazo[1,2-a]pyridin-2-yl]carbamoyl}phenyl)propyl]-1H-imidazole-4(5)-carboxamide]
